Reference: ChEMBL document CHEMBL1131055, “Discovery of type II (covalent) inactivation of S-adenosyl-L-homocysteine hydrolase involving its "hydrolytic activity": synthesis and evaluation of dihalohomovinyl nucleoside analogues derived from adenosine” (J Med Chem, 1998)

Tests used:
Adenosylhomocysteinase [1] = target: T1, Adenosylhomocysteinase (Homo sapiens, UniProt P23526); test: The kinetic constant for inhibition of S-adenosyl-homocysteine hydrolase by the compound
Target sequence in this assay (P23526 whole entry): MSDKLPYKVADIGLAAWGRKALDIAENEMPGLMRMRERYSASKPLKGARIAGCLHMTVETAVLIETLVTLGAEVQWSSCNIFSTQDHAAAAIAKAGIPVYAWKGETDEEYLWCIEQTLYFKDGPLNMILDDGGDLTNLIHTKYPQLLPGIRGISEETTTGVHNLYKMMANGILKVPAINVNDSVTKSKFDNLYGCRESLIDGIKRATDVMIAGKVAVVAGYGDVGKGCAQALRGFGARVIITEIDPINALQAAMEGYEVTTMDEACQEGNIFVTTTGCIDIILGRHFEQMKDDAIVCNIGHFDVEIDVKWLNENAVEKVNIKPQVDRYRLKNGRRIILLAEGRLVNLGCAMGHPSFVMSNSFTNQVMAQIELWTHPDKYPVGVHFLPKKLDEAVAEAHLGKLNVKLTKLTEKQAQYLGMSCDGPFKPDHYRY

[2] = Ratio of Kinact value to that of Ki value
Adenosylhomocysteinase [3] = target: T1, Adenosylhomocysteinase; test: The kinetic constant for inhibition of S-adenosyl-homocysteine hydrolase obtained from human placenta by the compound
Target sequence in this assay (P23526 2-432 limits assumed): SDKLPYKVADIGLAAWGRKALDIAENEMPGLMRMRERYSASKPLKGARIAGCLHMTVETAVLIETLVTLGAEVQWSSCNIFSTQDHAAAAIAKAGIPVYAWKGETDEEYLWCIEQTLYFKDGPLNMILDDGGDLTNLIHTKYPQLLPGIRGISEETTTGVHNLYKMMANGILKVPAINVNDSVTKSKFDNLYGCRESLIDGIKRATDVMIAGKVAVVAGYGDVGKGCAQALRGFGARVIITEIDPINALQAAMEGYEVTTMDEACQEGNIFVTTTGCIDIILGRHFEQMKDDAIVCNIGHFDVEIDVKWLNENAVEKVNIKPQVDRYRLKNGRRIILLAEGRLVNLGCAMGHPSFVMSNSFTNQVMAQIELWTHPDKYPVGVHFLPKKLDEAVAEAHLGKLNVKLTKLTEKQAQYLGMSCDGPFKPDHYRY

| Ki (Adenosylhomocysteinase [1]) [µM] | K inact/Ki [2] [M⁻¹ min⁻¹] | K inact (Adenosylhomocysteinase [3]) [min⁻¹] | SMILES |
| --- | --- | --- | --- |
| 3.9 | 10200 | 0.04 | Nc1ncnc2c1ncn2C1O[C@H](/C=C(/F)Br)[C@@H](O)[C@H]1O (some centres undefined) |
| 3.6 | 22500 | 0.081 | Nc1ncnc2c1ncn2C1O[C@H](/C(Br)=C\Br)[C@@H](O)[C@H]1O (some centres undefined) |
| 3.1 | 11600 | 0.036 | Nc1ncnc2c1ncn2C1O[C@H](C=C(Br)Br)[C@@H](O)[C@H]1O (some centres undefined) |
